Reference: US8895738B2, “Mesoionic pyrido [1, 2-A] pyrimidine pesticides” (E I du Pont de Nemours and Company, priority 2010, dated 2014)
Where a name gives a salt, the structure may show the parent alone.

Columns and labels:
Type in all cases: in vivo
[1] = system: Rice plants (indica cultivar ‘JAYA’); assay: Test K: vigor, height and panicle length of rice crop outdoors, Gujarat; details: for crop vigor (visual rating, 0 to 200% scale, untreated = 100%): 32 days after application, Nilaparvata lugens level moderate; for average height of rice plants / average panicle length of rice plants: 45 days after application; for average height of rice plants: untreated 0.78 m; for average panicle length of rice plants: untreated 22.4 cm
Protocol: (§1) To evaluate the effect of application of a compound of the invention on the vigor of rice crops grown under outdoor conditions, Tests 1 through 0 were conducted. “a.i.” refers to the amount of active ingredient applied.
Rice plants (indica cultivar ‘JAYA’) were transplanted into flooded 6 m×5 m test plots of clay loam soil under shade cloth in the State of Gujarat, India during the hot season before monsoon arrival, and grown using local agronomic practices. Accordingly, after 44 days from transplanting, all rice plants in this test were sprayed with an aqueous mixture containing 30 g a.i./ha of cypermethrin and 100 g a.i./ha of picoxystrobin. After 53 days from transplanting, aqueous mixtures of Compound 3 were applied to the foliage of the rice plants at 6.25, 12.5, 25 or 50 g a.i./ha in a spray volume of 500 L/ha using a backpack sprayer. Plots of unsprayed rice plants were used as controls. Each treatment and control was replicated three times, and the plots were arranged in a randomized complete block design. At the time of application of Compound 3, the pest level of rice brown planthopper (Nilaparvata lugens) was moderate, but still above the level considered economically significant.
At 45 days after application, the height and panicle length of the rice plants were measured. Plant height was determined by measuring length from vertically extended longest leaf tip to soil surface. Panicle length was measured similarly. The average height of rice plants treated with 6.25, 12.5, 25 and 50 g a.i./ha of Compound 3 was 0.94, 0.92, 0.92 and 0.99 m, respectively, compared to 0.78 m for untreated control plants. The average panicle length of rice plants treated with 6.25, 12.5, 25 and 50 g a.i./ha of Compound 3 was 23.8, 23.7, 24.9 and 24.6 cm, respectively, compared to 22.4 cm for untreated control plants.

[2] = system: Rice plants (indica cultivar ‘MTU1010’); assay: Test I: vigor of rice crop outdoors, foliar application, West Godavri; details: 20 days after application, Nilaparvata lugens level high
Protocol: as §1
Rice plants (indica cultivar ‘MTU1010’) were transplanted into flooded 5 m×3 m test plots of clay loam soil in the delta region of the West Godavri district, Andhra Pradesh, India, during the rainy season, and grown using local agronomic practices. After 47 days, aqueous mixtures of Compound 3 were applied to the foliage of the rice plants at 12.5, 25 or 50 g a.i./ha in a spray volume of 387 L/ha using a backpack sprayer. Plots of unsprayed rice plants were used as controls. Each treatment and control was replicated three times, and the plots were arranged in a randomized complete block design. At the time of application of Compound 3, the pest level of rice brown planthopper (Nilaparvata lugens) was high, i.e. much above the level considered economically significant.
The crop vigor of the rice plants in each plot was visually rated based on general external appearance (e.g., plant height) 20 days after application on a 0 to 200% scale, wherein the plants in untreated control plots were considered to represent 100%, and the results for the three replicates for each treatment were averaged. More than 100% means the plants in a treated plot were more vigorous than those in the untreated control plot, while less than 100% means the plants in the treated pot were less vigorous.

[3] = system: Rice plants (indica cultivar); assay: Test M: vigor of direct seeded rice crop outdoors, An Giang, Vietnam; details: all application rates (6.25, 12.5, 25 or 50 g a.i./ha) with 30 g a.i./ha indoxacarb and 20 g a.i./ha chlorantraniliprole; 18 days after application; Nilaparvata lugens level very low
Protocol: as §1
Rice plants (indica cultivar) were direct seeded into flooded 6 m×5 m test plots of clay loam soil in An Giang Province of Vietnam shortly before the monsoon, and grown using local agronomic practices. After 42 days, at the beginning of the wet season, aqueous mixtures containing 30 g a.i./ha of indoxacarb in form of STEWARD® Insecticide, 20 g a.i./ha of chlorantraniliprole, and 6.25, 12.5, 25 or 50 g a.i./ha of Compound 3 were applied to the foliage of the rice plants at in a spray volume of 400 L/ha using a motorized sprayer. Plots of control rice plants were sprayed with an aqueous mixture containing 30 g a.i./ha of indoxacarb in form of STEWARD® Insecticide and 20 g a.i./ha of chlorantraniliprole (i.e. no Compound 3). Each treatment and control was replicated three times, and the plots were arranged in a randomized complete block design. At the time of application of Compound 3, the pest level of rice brown planthopper (Nilaparvata lugens) was very low.

O=c1c(-c2cccc(C(F)(F)F)c2)c([O-])[n+](Cc2cncnc2)c2ccccn12 [Compound 3, 2-hydroxy-4-oxo-1-(5-pyrimidinylmethyl)-3-[3-(trifluoromethyl)phenyl]-4H-pyrido[1,2-a]pyrimidinium inner salt]
crop vigor (visual rating, 0 to 200% scale, untreated = 100%) ([1]; 6.25 g a.i./ha foliar): 115% | average height of rice plants ([1]; 6.25 g a.i./ha): 0.94 m | average panicle length of rice plants ([1]; 6.25 g a.i./ha): 23.8 cm | crop vigor (visual rating, 0 to 200% scale, untreated = 100%) ([1]; 12.5 g a.i./ha foliar): 113% | average height of rice plants ([1]; 12.5 g a.i./ha): 0.92 m | average panicle length of rice plants ([1]; 12.5 g a.i./ha): 23.7 cm | crop vigor (visual rating, 0 to 200% scale, untreated = 100%) ([1]; 25 g a.i./ha foliar): 122% | average height of rice plants ([1]; 25 g a.i./ha): 0.92 m | average panicle length of rice plants ([1]; 25 g a.i./ha): 24.9 cm | crop vigor (visual rating, 0 to 200% scale, untreated = 100%) ([1]; 50 g a.i./ha foliar): 115% | average height of rice plants ([1]; 50 g a.i./ha): 0.99 m | average panicle length of rice plants ([1]; 50 g a.i./ha): 24.6 cm | crop vigor (visual rating, 0 to 200% scale, untreated = 100%) ([2]; 12.5 g a.i./ha foliar): 140% | crop vigor (visual rating, 0 to 200% scale, untreated = 100%) ([2]; 25 g a.i./ha foliar): 143% | crop vigor (visual rating, 0 to 200% scale, untreated = 100%) ([2]; 50 g a.i./ha foliar): 143% | crop vigor (visual rating, 0 to 200% scale, control = 100%) [3]: 100%
